Measured values from patent US8003785B2 (Takeda Pharmaceutical Company Limited, priority 2008, dated 2011).
pIC50: −log10 of the molar value.

Molecular target: T1, PLK1 (Homo sapiens, UniProt P53350)
T1 construct: Full-length, active GST-PLK1 is purified from Sf9 insect cells; made in house; host or cells: Sf9 insect cells
Assay: Biochemical Characterization Assay: HTRF kinase assay, GST-PLK1 phosphorylation of GST-p53
Conditions: GST-PLK1, GST-p53 substrate
Description: Biochemical Characterization Assay
Full-length, active GST-PLK1 is purified from Sf9 insect cells, and full-length GST-p53 is purified from E. coli. Anti-phospho p53 antibody is from Cell Signaling Technology. Europium-conjugated anti-rabbit antibody is from PerkinElmer Life and Analytical Sciences. APC-conjugated anti-GST antibody is from Prozyme.
Six microliters of GST-PLK1 (3 ug/mL) in Kinase Assay Buffer are then added and the solution incubated at 37° C. for 35 minutes. Six microliters of solution containing 43 mM EDTA to stop the reaction and a 1:600 dilution of anti-phospho-p53 antibody in 20 mM HEPES pH 7, 50 mM NaCl, and 0.5 mg/mL BSA (Antibody Binding Buffer) are added and the solution incubated at 37° C. for 30 minutes. […] The HTRF signal is read on an Envision reader from PerkinElmer Life and Analytical Sciences.

T1 sequence (P53350 whole entry): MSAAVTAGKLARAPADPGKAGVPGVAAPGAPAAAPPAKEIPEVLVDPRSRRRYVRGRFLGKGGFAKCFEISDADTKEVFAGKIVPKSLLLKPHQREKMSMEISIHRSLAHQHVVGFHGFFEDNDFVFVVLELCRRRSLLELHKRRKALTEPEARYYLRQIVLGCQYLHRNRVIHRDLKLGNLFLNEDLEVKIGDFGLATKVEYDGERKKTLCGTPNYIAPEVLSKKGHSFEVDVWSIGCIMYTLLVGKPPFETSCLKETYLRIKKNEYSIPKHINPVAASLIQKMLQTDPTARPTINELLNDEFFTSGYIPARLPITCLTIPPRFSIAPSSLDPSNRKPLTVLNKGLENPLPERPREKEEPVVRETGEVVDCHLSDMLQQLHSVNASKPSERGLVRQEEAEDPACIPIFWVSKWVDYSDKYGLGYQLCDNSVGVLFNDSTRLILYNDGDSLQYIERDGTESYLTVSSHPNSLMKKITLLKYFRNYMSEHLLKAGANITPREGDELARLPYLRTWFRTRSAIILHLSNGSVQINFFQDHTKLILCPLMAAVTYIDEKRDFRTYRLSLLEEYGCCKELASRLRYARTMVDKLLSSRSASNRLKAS

| Structure (SMILES) | pIC50 (ATP) | pIC50 |
| --- | --- | --- |
| COCCCNC(=O)c1ccc(Nc2ncc3c(n2)N(C2CCCC2)CC(F)(F)C(=O)N3C)c(OC)c1 [Example I-29, 4-(9-cyclopentyl-7,7-difluoro-5-methyl-6-oxo-6,7,8,9-tetrahydro-5H-pyrimido[4,5-b][1,4]diazepin-2-ylamino)-3-methoxy-N-(3-methoxy-propyl)-benzamide] | 7.30 to 9.00 |  |
| COc1cc(C(=O)NCCN(C)C)ccc1Nc1ncc2c(n1)N(C1CCCC1)CC(F)(F)C(=O)N2C [Example I-52, 4-(9-cyclopentyl-7,7-difluoro-5-methyl-6-oxo-6,7,8,9-tetrahydro-5H-pyrimido[4,5-b][1,4]diazepin-2-ylamino)-N-(2-dimethylamino-ethyl)-3-methoxy-benzamide] | 7.30 to 9.00 |  |
| CCOc1cc(C(=O)NC)ccc1Nc1ncc2c(n1)N(C1CCCC1)CC(F)(F)C(=O)N2C [Example I-220, 4-(9-cyclopentyl-7,7-difluoro-5-methyl-6-oxo-6,7,8,9-tetrahydro-5H-pyrimido[4,5-b][1,4]diazepin-2-ylamino)-3-ethoxy-N-methyl-benzamide] |  | 7.30 to 9.00 |
| COc1cc(C(=O)NC2CCN(C)CC2)ccc1Nc1ncc2c(n1)N(C1CCCC1)CC(Cl)(Cl)C(=O)N2C [Example I-298, 4-(7,7-dichloro-9-cyclopentyl-5-methyl-6-oxo-6,7,8,9-tetrahydro-5H-pyrimido[4,5-b][1,4]diazepin-2-ylamino)-3-methoxy-N-(1-methyl-piperidin-4-yl)-benzamide] |  | 7.30 to 9.00 |
| COc1cc(C(=O)N[C@H]2CN(C(=O)OCc3ccccc3)CC[C@@H]2OC)ccc1Nc1ncc2c(n1)N(C1CCCC1)CC(F)(F)C(=O)N2C (racemic) [Example I-58, rac-(3S,4S)-3-[4-(9-cyclopentyl-7,7-difluoro-5-methyl-6-oxo-6,7,8,9-tetrahydro-5H-pyrimido[4,5-b][1,4]diazepin-2-ylamino)-3-methoxy-benzoylamino]-4-methoxy-piperidine-1-carboxylic acid benzyl ester] | 6.30 to 7.29 |  |
| CN1C(=O)C(F)(F)CN(C2CCCCC2)c2nc(Nc3ccc(C(=O)O)cc3)ncc21 [Example I-256, 4-(9-cyclohexyl-7,7-difluoro-5-methyl-6-oxo-6,7,8,9-tetrahydro-5H-pyrimido[4,5-b][1,4]diazepin-2-ylamin)-benzoic acid] |  | 7.30 to 9.00 |
| CCN1CCC(NC(=O)c2ccc(Nc3ncc4c(n3)N(C3CCCCC3)CC(F)(F)C(=O)N4C)cc2)CC1 [Example I-261, 4-(9-cyclohexyl-7,7-difluoro-5-methyl-6-oxo-6,7,8,9-tetrahydro-5H-pyrimido[4,5-b][1,4]diazepin-2-ylamino)-N-(1-ethyl-piperidin-4-yl)-benzamide] |  | 7.30 to 9.00 |
| COc1cc(C(=O)N[C@@H]2CCN(C(=O)OCc3ccccc3)C[C@H]2O)ccc1Nc1ncc2c(n1)N(C1CCCC1)CC(F)(F)C(=O)N2C (racemic) [Example I-54, rac-(3R,4R)-4-[4-(9-cyclopentyl-7,7-difluoro-5-methyl-6-oxo-6,7,8,9-tetrahydro-5H-pyrimido[4,5-b][1,4]diazepin-2-ylamino)-3-methoxy-benzoylamino]-3-hydroxy-piperidine-1-carboxylic acid benzyl ester] | 6.30 to 7.29 |  |
| CCOc1cc(C(=O)NC2CCN(C(=O)OC(C)(C)C)CC2)ccc1Nc1ncc2c(n1)N(C1CCCC1)CC(F)(F)C(=O)N2C [Example I-221, 4-[4-(9-cyclopentyl-7,7-difluoro-5-methyl-6-oxo-6,7,8,9-tetrahydro-5H-pyrimido[4,5-b][1,4]diazepin-2-ylamino)-3-ethoxy-benzoylamino]-piperidine-1-carboxylic acid tert-butyl ester] |  | 6.30 to 7.29 |
| COc1cc(C(=O)NC2CCN(C)CC2)ccc1Nc1ncc2c(n1)N(CCc1ccccc1)CC(F)(F)C(=O)N2C [Example I-276, 4-(7,7-difluoro-5-methyl-6-oxo-9-phenethyl-6,7,8,9-tetrahydro-5!-pyrimido[4,5-b][1,4]diazepin-2-ylamino)-3-methoxy-N-(1-methyl-piperidin-4-yl)-benzamide] |  | 7.30 to 9.00 |
| COc1cc(C(=O)N[C@H]2CCN(C(=O)OC(C)(C)C)C2)ccc1Nc1ncc2c(n1)N(C1CCCC1)CC(F)(F)C(=O)N2C [Example I-82, S-3-[4-(9-cyclopentyl-7,7-difluoro-5-methyl-6-oxo-6,7,8,9-tetrahydro-5H-pyrimido[4,5-b][1,4]diazepin-2-ylamino)-3-methoxy-benzoylamino]-pyrrolidine-1-carboxylic acid tert-butyl ester] | 7.30 to 9.00 |  |
| COc1cc(C(=O)N2CCN(C)CC2)ccc1Nc1ncc2c(n1)N(C1CCCC1)CC(F)(F)C(=O)N2C [Example I-128, 9-cyclopentyl-7,7-difluoro-2-[2-methoxy-4-(4-methyl-piperazine-1-carbonyl)-phenylamino]-5-methyl-5,7,8,9-tetrahydro-pyrimido[4,5-b][1,4]diazepin-6-one] | 7.30 to 9.00 |  |
| COc1cc(C(=O)NCCCN(C)C)ccc1Nc1ncc2c(n1)N(C1CCCC1)CC(F)(F)C(=O)N2C [Example I-78, 4-(9-cyclopentyl-7,7-difluoro-5-methyl-6-oxo-6,7,8,9-tetrahydro-5H-pyrimido[4,5-b][1,4]diazepin-2-ylamino)-N-(3-dimethylamino-propyl)-3-methoxy-benzamide] | 7.30 to 9.00 |  |
| CCN1C(=O)C(F)(F)CN(C2CCCC2)c2nc(Nc3ccc(C(=O)NC)cc3)ncc21 [Example I-140, 4-(9-cyclopentyl-5-ethyl-7,7-difluoro-6-oxo-6,7,8,9-tetrahydro-5H-pyrimido[4,5-b][1,4]diazepin-2-ylamino)-N-methyl-benzamide] | 5.30 to 6.30 |  |
| COc1cc(C(=O)NCCN(C)C)ccc1Nc1ncc2c(n1)N(C1CCC1)CC(F)(F)C(=O)N2C [Example I-8, 4-(9-cyclobutyl-7,7-difluoro-5-methyl-6-oxo-6,7,8,9-tetrahydro-5H-pyrimido[4,5-b][1,4]diazepin-2-ylamino)-N-(2-dimethylamino-ethyl)-3-methoxy-benzamide] | 7.30 to 9.00 |  |
| COc1cc(C(=O)O)ccc1Nc1ncc2c(n1)N(CCc1ccccc1)CC(F)(F)C(=O)N2C [Example I-275, 4-(7,7-difluoro-5-methyl-6-oxo-9-phenethyl-6,7,8,9-tetrahydro-5H-pyrimido[4,5-b][1,4]diazepin-2-ylamino)-3-methoxy-benzoic acid] |  | 6.30 to 7.29 |
| CN1C(=O)C(F)(F)CN(C2CCC2)c2nc(Nc3ccc(C(=O)NC4CCNCC4)cc3)ncc21 [Example I-14, 4-(9-cyclobutyl-7,7-difluoro-5-methyl-6-oxo-6,7,8,9-tetrahydro-5H-pyrimido[4,5-b][1,4]diazepin-2-ylamino)-N-piperidin-4-yl-benzamide] | 7.30 to 9.00 |  |
| COc1cc(C(N)=O)ccc1Nc1ncc2c(n1)N(C1CCC1)CC(F)(F)C(=O)N2C [Example I-2, 4-(9-cyclobutyl-7,7-difluoro-5-methyl-6-oxo-6,7,8,9-tetrahydro-5H-pyrimido[4,5-b][1,4]diazepin-2-ylamino)-3-methoxy-benzamide] | 7.30 to 9.00 |  |
| COc1cc(C(=O)NCCCN2CCNCC2)ccc1Nc1ncc2c(n1)N(C1CCCC1)CC(F)(F)C(=O)N2C [Example I-95, 4-(9-cyclopentyl-7,7-difluoro-5-methyl-6-oxo-6,7,8,9-tetrahydro-5H-pyrimido[4,5-b][1,4]diazepin-2-ylamino)-3-methoxy-N-(3-piperazin-1-yl-propyl)-benzamide] | 7.30 to 9.00 |  |
| COc1cc(C(=O)NCC(O)CN2CCN(C(=O)OC(C)(C)C)CC2)ccc1Nc1ncc2c(n1)N(C1CCCC1)CC(F)(F)C(=O)N2C (stereo not drawn) [Example I-120, 4-{3-[4-(9-cyclopentyl-7,7-difluoro-5-methyl-6-oxo-6,7,8,9-tetrahydro-5H-pyrimido[4,5-b][1,4]diazepin-2-ylamino)-3-methoxy-benzoylamino]-2-hydroxy-propyl}-piperazine-1-carboxylic acid tert-butyl ester] | 6.30 to 7.29 |  |
| COc1cc(C(=O)NCCCn2ccnc2)ccc1Nc1ncc2c(n1)N(C1CCCC1)CC(F)(F)C(=O)N2C [Example I-61, 4-(9-cyclopentyl-7,7-difluoro-5-methyl-6-oxo-6,7,8,9-tetrahydro-5H-pyrimido[4,5-b][1,4]diazepin-2-ylamino)-N-(3-imidazol-1-yl-propyl)-3-methoxy-benzamide] | 7.30 to 9.00 |  |
| COc1cc(C(=O)NCCCO)ccc1Nc1ncc2c(n1)N(C1CCCC1)CC(F)(F)C(=O)N2C [Example I-41, 4-(9-cyclopentyl-7,7-difluoro-5-methyl-6-oxo-6,7,8,9-tetrahydro-5H-pyrimido[4,5-b][1,4]diazepin-2-ylamino)-N-(3-hydroxy-propyl)-3-methoxy-benzamide] | 7.30 to 9.00 |  |
| COc1cc(C(=O)N[C@H]2CCNC(=O)C2)ccc1Nc1ncc2c(n1)N(C1CCCC1)CC(F)(F)C(=O)N2C [Example I-90, S-4-(9-cyclopentyl-7,7-difluoro-5-methyl-6-oxo-6,7,8,9-tetrahydro-5H-pyrimido[4,5-b][1,4]diazepin-2-ylamino)-3-methoxy-N-(2-oxo-piperidin-4-yl)-benzamide] | 7.30 to 9.00 |  |
| CN1C(=O)C(F)(F)CN(C2CCCC2)c2nc(Nc3ccc(C(=O)NC4CCNCC4)cc3F)ncc21 [Example I-230, 4-(9-cyclopentyl-7,7-difluoro-5-methyl-6-oxo-6,7,8,9-tetrahydro-5H-pyrimido[4,5-b][1,4]diazepin-2-ylamino)-3-fluoro-N-piperidin-4-yl-benzamide] |  | 7.30 to 9.00 |
